The structures appear in SMILES notation.

For assay [1], the system named is Danio rerio embryo/larva. Nature of the assay: BMC edema; higher = less potent. As to conditions: exposure: 6-8 hpf to 5 dpf, scored at 6 dpf. In outline:
(§1)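 Two blinded assessors scored mortality (as % dead), hatching and malformations (as % of living larvae affected), without normalisation. The larvae came from wild-type zebrafish embryos with chorions, placed singly in wells of 200 μL 10% Hanks' at 6–8 hpf, given an 8-point half-log DMSO series (0.4% DMSO final), kept sealed at 26 °C with n = 6 per concentration, rinsed at 5 dpf and scored at 6 dpf. Benchmark concentration was fitted in tcpl, with bounded models chosen by lowest AIC. A benchmark response of 1.349 × baseline standard deviation was used.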

Assay [2] concerns Danio rerio embryo/larva. Nature of the assay: BMC abnormal position; higher = less potent. Conditions: exposure: 6-8 hpf to 5 dpf, scored at 6 dpf. As to the method:
(§2)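 Zebrafish embryos (with chorion) were exposed from 6-8 hpf to each PFAS (8-point half-log series, top concentration up to 100 uM, 0.4% DMSO, sealed plates, 26 C; n = 6 embryos per concentration), rinsed at 5 dpf and scored at 6 dpf by two blinded observers for mortality, hatching and malformations. Endpoint scores are the % of living larvae affected (dead larvae excluded; […]). Curves were fitted with tcpl (cutoff 16%), and the BMC is the concentration at a benchmark response of 21.6%.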

Assay [3] deals with Danio rerio embryo/larva. Nature of the assay: max % larvae with any abnormality across tested concentrations; max tested concentration (log10 uM): 2; higher = more toxic; extreme values may be limits of the assay. As to conditions: exposure: 6-8 hpf to 5 dpf, scored at 6 dpf.
For assay [4], the system named is Danio rerio embryo/larva. Kind of assay: max % larvae unhatched across tested concentrations; max tested concentration (log10 uM): 2; higher = more toxic. Conditions: exposure: 6-8 hpf to 5 dpf, scored at 6 dpf.
The test system of assay [5] is Danio rerio embryo/larva. Nature of the assay: BMC swim bladder non-inflation; higher = less potent. Conditions: exposure: 6-8 hpf to 5 dpf, scored at 6 dpf. The method in brief:
as §1

Assay [6] deals with Danio rerio embryo/larva. Kind of assay: BMC mortality; max tested concentration (log10 uM): 2; higher = less potent. As to conditions: exposure: 6-8 hpf to 5 dpf, scored at 6 dpf. As to the method: as §2
Assay [7] relates to Danio rerio embryo/larva. Kind of assay: max % larvae dead across tested concentrations; max tested concentration (log10 uM): 2; higher = more toxic; extreme values may be limits of the assay. As to conditions: exposure: 6-8 hpf to 5 dpf, scored at 6 dpf.
The test system of assay [8] is Danio rerio embryo/larva. Kind of assay: BMC any abnormality; max tested concentration (log10 uM): 2; higher = less potent. As to conditions: exposure: 6-8 hpf to 5 dpf, scored at 6 dpf. In outline:
as §1

The subject of assay [9] is Danio rerio embryo/larva. Nature of the assay: BMC spinal defects; higher = less potent. Conditions: max tested concentration (log10 uM): 2; exposure: 6-8 hpf to 5 dpf, scored at 6 dpf. As for the experimental part:
as §2

The test system of assay [10] is Danio rerio embryo/larva. Nature of the assay: BMC craniofacial defects; higher = less potent. Conditions: exposure: 6-8 hpf to 5 dpf, scored at 6 dpf. As for the experimental part:
as §2

In assay [11] the test system is Danio rerio embryo/larva. Nature of the assay: BMC any abnormality; max tested concentration (log10 uM): 1.90309; higher = less potent. Conditions: exposure: 6-8 hpf to 5 dpf, scored at 6 dpf. As for the experimental part: as §2
Assay [12] has as its system Danio rerio embryo/larva. Nature of the assay: max % larvae unhatched across tested concentrations; max tested concentration (log10 uM): 1.90309; higher = more toxic. Conditions: exposure: 6-8 hpf to 5 dpf, scored at 6 dpf.
Assay [13] has as its system Danio rerio embryo/larva. Kind of assay: BMC blood pooling; max tested concentration (log10 uM): 1.90309; higher = less potent. Conditions: exposure: 6-8 hpf to 5 dpf, scored at 6 dpf. As for the experimental part: as §2
Assay [14] concerns Danio rerio embryo/larva. Nature of the assay: max % larvae with any abnormality across tested concentrations; max tested concentration (log10 uM): 1.90309; higher = more toxic; extreme values may be limits of the assay. As to conditions: exposure: 6-8 hpf to 5 dpf, scored at 6 dpf.
Assay [15] has as its system Danio rerio embryo/larva. Nature of the assay: BMC tail defects; max tested concentration (log10 uM): 1.90309; higher = less potent. Conditions: exposure: 6-8 hpf to 5 dpf, scored at 6 dpf. As for the experimental part:
as §2

The test system of assay [16] is Danio rerio embryo/larva. Kind of assay: max % larvae dead across tested concentrations; max tested concentration (log10 uM): 1.30103; higher = more toxic; extreme values may be limits of the assay. Conditions: exposure: 6-8 hpf to 5 dpf, scored at 6 dpf.
The test system of assay [17] is Danio rerio embryo/larva. Nature of the assay: max % larvae unhatched across tested concentrations; max tested concentration (log10 uM): 1.30103; higher = more toxic. Conditions: exposure: 6-8 hpf to 5 dpf, scored at 6 dpf.
The test system of assay [18] is Danio rerio embryo/larva. Kind of assay: max % larvae with any abnormality across tested concentrations; max tested concentration (log10 uM): 1.30103; higher = more toxic; extreme values may be limits of the assay. Conditions: exposure: 6-8 hpf to 5 dpf, scored at 6 dpf.
In assay [19] the test system is Danio rerio embryo/larva. Nature of the assay: BMC tail defects; max tested concentration (log10 uM): 2; higher = less potent. Conditions: exposure: 6-8 hpf to 5 dpf, scored at 6 dpf. As for the experimental part: as §2
In assay [20] the test system is Danio rerio embryo/larva. Kind of assay: BMC blood pooling; max tested concentration (log10 uM): 2; higher = less potent. As to conditions: exposure: 6-8 hpf to 5 dpf, scored at 6 dpf. As for the experimental part:
as §2

Where [21] appears, read: max tested concentration (log10 uM): 2.
Where [22] appears, read: max tested concentration (log10 uM): 1.90309.

In the case of `O=S(=O)(Cl)C(F)(F)C(F)(F)C(F)(F)C(F)(F)C(F)(F)C(F)(F)C(F)(F)C(F)(F)F` [Perfluoro-1-octanesulfonyl chloride], the BMC edema in the assay with Danio rerio embryo/larva [1] (setting [21]) turned out to be 29.4 µM. For the same molecule, the BMC abnormal position in the assay with Danio rerio embryo/larva [2] (setting [21]) amounted to 92 µM. Further, the max % larvae in the assay on Danio rerio embryo/larva [3] worked out at 100%. Besides, in the assay on Danio rerio embryo/larva [4], the “max % larvae unhatched across tested concentrations” value is 0%. Further, in the assay with Danio rerio embryo/larva [5] (setting [21]), the “BMC swim bladder non-inflation” value is 10.4 µM. In the assay with Danio rerio embryo/larva [6], this molecule registered a BMC mortality of 77.9 µM. Further, in the assay on Danio rerio embryo/larva [7], the “max % larvae dead across tested concentrations” value was determined as 83.3%. For the same molecule, the BMC any abnormality in the assay with Danio rerio embryo/larva [8] worked out at 10.4 µM. For the same molecule, in the assay on Danio rerio embryo/larva [9], the BMC spinal defects stood at 95.8 µM.

As to `O=S(=O)(O)C(F)(F)C(F)(F)C(F)(F)C(F)(F)C(F)(F)C(F)(F)C(F)(F)F` [Perfluoroheptanesulfonic acid], the BMC craniofacial defects with Danio rerio embryo/larva [10] (setting [22]) came out at 18.1 µM. The BMC any abnormality with Danio rerio embryo/larva [11] worked out at 15.6 µM. Moreover, in the assay on Danio rerio embryo/larva [1] (setting [22]), the BMC edema came to 18.5 µM. The same molecule yielded a BMC abnormal position with Danio rerio embryo/larva [2] (setting [22]) of 17.7 µM. Moreover, in the assay on Danio rerio embryo/larva [12], the “max % larvae unhatched across tested concentrations” value was 0%. The “BMC swim bladder non-inflation” value in the assay on Danio rerio embryo/larva [5] (setting [22]) was determined as 15.6 µM. Moreover, in the assay on Danio rerio embryo/larva [13], the BMC blood pooling is 61 µM. In addition, the max % larvae in the assay on Danio rerio embryo/larva [14] stood at 100%. Further, the BMC tail defects in the assay with Danio rerio embryo/larva [15] turned out to be 27 µM.

With `O=C(O)C(F)(F)C(F)(F)C(F)(F)C(F)(F)C(F)(F)C(F)(F)C(F)(F)C(F)(F)C(F)(F)C(F)(F)C(F)(F)C(F)(F)C(F)(F)F` [Perfluorotetradecanoic acid], in the assay with Danio rerio embryo/larva [16], the “max % larvae dead across tested concentrations” value was determined as 0%. In addition, the “max % larvae unhatched across tested concentrations” value in the assay with Danio rerio embryo/larva [17] came out at 0%. The same molecule registered a max % larvae in the assay with Danio rerio embryo/larva [18] of 12.5%.

As to `O=C(O)C(F)(F)C(F)(F)C(F)(F)C(F)(F)C(F)(F)C(F)(F)C(F)(F)C(F)(F)C(F)(F)C(F)(F)C(F)(F)C(F)(F)F` [Perfluorotridecanoic acid], the “max % larvae dead across tested concentrations” value in the assay with Danio rerio embryo/larva [16] stood at 0%. Moreover, the “max % larvae unhatched across tested concentrations” value with Danio rerio embryo/larva [17] came out at 0%. In the assay on Danio rerio embryo/larva [18], this molecule showed a max % larvae of 16.7%.

Molecule `O=S(=O)(O)C(F)(F)C(F)(F)C(F)(F)C(F)(F)C(F)(F)C(F)(F)C(F)(F)C(F)(F)F` [Potassium perfluorooctanesulfonate] came in with a BMC craniofacial defects in the assay with Danio rerio embryo/larva [10] (setting [21]) of 8.25 µM. For the same molecule, the BMC tail defects with Danio rerio embryo/larva [19] is 27.8 µM. In addition, the BMC edema in the assay on Danio rerio embryo/larva [1] (setting [21]) is 4.65 µM. The same molecule came in with a BMC abnormal position in the assay with Danio rerio embryo/larva [2] (setting [21]) of 3.99 µM. The max % larvae with Danio rerio embryo/larva [3] stood at 100%. Further, the “max % larvae unhatched across tested concentrations” value in the assay on Danio rerio embryo/larva [4] worked out at 0%. The “BMC swim bladder non-inflation” value with Danio rerio embryo/larva [5] (setting [21]) stood at 2.81 µM. Also, the BMC any abnormality with Danio rerio embryo/larva [8] amounted to 2.77 µM. In the assay on Danio rerio embryo/larva [20], this molecule had a BMC blood pooling of 10.5 µM. In addition, the BMC spinal defects in the assay with Danio rerio embryo/larva [9] amounted to 26 µM.

(Values after the supplement of paper PMC11281043.)
